For two compounds, Km results are on record in PMC9322767, “Novel Unspecific Peroxygenase from Truncatella angustata Catalyzes the Synthesis of Bioactive Lipid Mediators” (Microorganisms, 2022).

Structures can show the parent of a compound that is named as a salt. Where two headings read alike, the source gives them in different places.

The subject of assay [1] is TanUPO. The following applies: read-out: apparent kinetic parameters; co-substrate H2O2 2 mM; McIlvaine buffer pH 4.5.
The test system of assay [2] is T1, TanUPO.
T1 construct: native wild-type purified from culture of own fungal isolate; glycosylated heme-thiolate protein
The assay is described as follows: HPLC-ELSD of […],15-EET formation. Type of assay: biochemical, Truncatella angustata. The following applies: co-substrate H2O2 (from glucose/glucose oxidase); 20 mM phosphate pH 7.0, 30 °C, 20% (v/v) acetone; sigmoidal kinetics (Hill).

For `CCn1c(=NN=c2sc3cc(S(=O)(=O)O)ccc3n2CC)sc2cc(S(=O)(=O)O)ccc21` [ABTS, 2,2′-azino-di(3-ethylbenzthiazoline-6-sulfonate) di-ammonium salt], the Km in the assay with TanUPO [1] came to 257 µM.

Consider `CCCCC/C=C\C/C=C\C/C=C\C/C=C\CCCC(=O)O` [arachidonic acid, (5Z,8Z,11Z,14Z)-5,8,11,14-eicosatetraenoic acid], for which, in the assay with TanUPO [2], the Km was approximately 200 µM.
